# From patent US8084502B2, “Use of agmatine for protection of retinal ganglion cells” (priority 2007, dated 2011)
# Where a SMILES comes first, the peptide text is derived from it. The star is where a group is joined. Cbz = O=C(OCc1ccccc1)*; CH2F = FC*
# How the values were obtained:
# caspase-3 = experiment: Caspase-3 activity (colorimetric, Ac-DEVD-pNA cleavage) after hypoxia; assay type: cell-based, rat; settings: hypoxia 24 hours; 100 μM of agmatine or 50 μM of Z-VAD-FMK
# Description: The RGC-5 cell line, which is a RGC line developed from post-natal Sprague-Dawley rats, was grown in modified Dulbecco's Modified Eagle's Medium (DMEM; Gibco) supplemented with 10% of heat inactivated fetal bovine serum (Gibco) and 100 U/mL of penicillin and 100 μg/mL of streptomycin (Gibco). The cells were passaged every 2 to 3 days, and the cultures incubated at 37° C. in 5% of CO2 and air. […] For all experiments, cells were used at an 80% confluence. Cultures were transferred into a closed hypoxic chamber (Form a Scientific Co.) in which oxygen level (5% of O2, 5% of CO2, 90% of N2) and temperature (37° C.) were controlled. After washing twice with deoxygenated serum-free DMEM, cells were maintained in the hypoxic chamber. Control cells were not exposed to hypoxia. Agmatine or BDNF were added to the culture medium at the start of injury as indicated. Caspase-3 activity was measured using the CaspACE™ colorimetric assay system (Promega, Cat no. G7220) according to the manufacturer's instructions. Briefly, cells were harvested and resuspended in cell lysis buffer (10^8 cells/mL). […] After incubating at 37° C. for 4 hours, absorbance was measured using a microplate reader at 405 nm. Absorbance of each sample was determined by subtraction of the mean absorbance of the blank from that of each sample.
# RGC-5 = experiment: LDH assay, TNF-α-induced cell death; assay type: cell-based, rat
# Description: The RGC-5 cell line, which is an RGC line developed from post-natal Sprague-Dawley rats, was grown in modified DMEM (Gibco) supplemented with 10% of heat inactivated fetal bovine serum (Gibco) and 100 U/mL of penicillin and 100 μg/mL of streptomycin (Gibco). The cells were passaged every 2 to 3 days and incubated at 37° C. in 5% of CO2 and air. At cultivation, the cells had the same morphology. For all experiments, cells were used at 80% of confluence.
# After washing twice with PBS, cells were cultured in serum-free DMEM and treated with either 10 or 50 ng/mL of recombinant rat TNF-α (Chemicon) for up to 48 hours. The control cells were not exposed to TNF-α. 100 μM of agmatine was added to the culture medium at the start of injury as indicated.
# Cell viability was quantified by measuring the amounts of LDH released from the injured cells after TNF-α administration. LDH release is expressed as a value relative to the value of 100, which is the maximum LDH release that occurs after freezing each culture at −70° C. overnight and then rapidly thawing, thus inducing nearly complete cell damage. All experiments were performed in at least quadruplicate, and repeated at least eight times using cell cultures derived from different platings.
hypoxia-induced caspase-3 activity (caspase-3),Compound,"LDH release (RGC-5; 10 ng/mL of TNF-α alone, 24 hours)","LDH release (RGC-5; 10 ng/mL of TNF-α alone, 48 hours)","LDH release (RGC-5; 50 ng/mL of TNF-α alone, 24 hours)","LDH release (RGC-5; 50 ng/mL of TNF-α alone, 48 hours)"
equally suppressed,"COC(=O)C[C@H](NC(=O)[C@H](C)NC(=O)[C@@H](NC(=O)OCc1ccccc1)C(C)C)C(=O)CF [Z-VAD-FMK, reference compound] (Cbz-Val-Ala-Asp(OMe)-CH2F)",–,–,–,–
–,TNF-α,7.04±3.26%,10.16±1.77%,13.41±6.20%,17.00±1.92%
